“And” between values parts separate entries of the source, which are not always exact repeats. Equal entries are not always repeated. Where two headings read alike, the source gives them in different places.
Columns and labels:
[1] = Plasma pharmacokinetics in rats after a 30-min intravenous infusion of Kang-Ai injection; format: in vivo, Sprague–Dawley rats
Summary of the method: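 Fasted male Sprague–Dawley rats (250 ± 20 g) got a single 30-min tail-vein infusion of Kang-Ai injection at 6 mL/kg. Jugular blood was sampled from 5 min to 12 h for plasma. Parameters came from non-compartmental analysis (trapezoidal AUC), n = 3.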

[2] = Protein binding assay (equilibrium dialysis); format: in vitro ADME, rat
Procedure: Binding of circulating alkaloids and saponins to rat plasma was measured by equilibrium dialysis using Spectra/Por 2 dialysis membranes (molecular weight cutoff, 12–14 kDa; Rancho Dominguez, CA, USA) as described. After equilibrating for 24 h at 55 rpm and 37 °C, the dialysate and the plasma were sampled for analysis. […] The concentrations of tested matrine, oxysophocarpine and oxymatrine were 2 μmol/L, while those of astragaloside IV, III, and ginsenosides Rh1, Rg2, Rg1, Rf, Re, Rd, Rc, Rb1, Rb2, notoginsenosides R1, R2, were 4 μmol/L. The unbound fraction (fu-plasma) in rat plasma was calculated as follow: fu-plasma = Cd/Cp × 100%, where the Cd and Cp values were the concentrations of each analyte in the dialysate sample and in the post-dialysis plasma sample, respectively.

CYP2C8 = molecular target: T1, CYP2C8 (Homo sapiens, UniProt P10632); assay: Inhibition of recombinant CYP2C8 (probe paclitaxel); format: in vitro ADME
T1 sequence (P10632 1-490): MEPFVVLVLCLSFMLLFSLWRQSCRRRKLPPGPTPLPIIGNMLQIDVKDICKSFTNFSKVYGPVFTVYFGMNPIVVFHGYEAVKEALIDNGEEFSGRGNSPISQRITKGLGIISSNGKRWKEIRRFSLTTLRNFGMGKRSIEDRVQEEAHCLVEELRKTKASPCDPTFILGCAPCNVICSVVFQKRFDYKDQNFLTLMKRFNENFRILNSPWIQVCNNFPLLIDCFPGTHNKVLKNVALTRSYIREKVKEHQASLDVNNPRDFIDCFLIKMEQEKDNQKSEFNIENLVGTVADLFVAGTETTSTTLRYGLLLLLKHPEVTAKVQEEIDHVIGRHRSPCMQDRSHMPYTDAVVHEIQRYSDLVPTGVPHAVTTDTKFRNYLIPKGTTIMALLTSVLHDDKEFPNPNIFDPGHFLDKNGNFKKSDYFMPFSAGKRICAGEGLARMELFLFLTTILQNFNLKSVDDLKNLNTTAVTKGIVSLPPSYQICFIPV
Procedure: In this study, phenacetin (100 μM), coumarin (100 μM), bupropion (100 μM), paclitaxel (60 μM), tolbutamide (200 μM), mephenytoin (100 μM), chlorzoxazone (200 μM) and nifedipine (40 μM) have been used as the probe substrates for CYP1A2, 2A6, 2B6, 2C8, 2C9, 2C19, 2E1 and 3A4, respectively.

[3] = male, Sprague-Dawley, rat, in vivo, iv
[4] = male, Sprague-Dawley, plasma, rat, 30-min iv infusion of Kang-Ai injection 6 mL/kg, Table 1 unit, read-out: CLtot, p (converted)
[5] = male, Sprague-Dawley, plasma, rat, 30-min iv infusion of Kang-Ai injection 6 mL/kg, Table 1 unit, read-out: VSS
[6] = male, Sprague-Dawley, rat plasma, 30-min iv infusion of Kang-Ai injection 6 mL/kg, read-out: t1/2 (converted)
[7] = rat plasma, equilibrium dialysis 24 h, 37 °C, 2 μmol/L alkaloids, 4 μmol/L saponins, read-out: fu-plasma (unbound fraction)
[8] = male, Sprague-Dawley, rat plasma, 30-min iv infusion of Kang-Ai injection 6 mL/kg, read-out: Cmax
[9] = recombinant isozyme, mean ± SD of triplicate, unit not given (IC50 classes in μM), read-out: IC50 towards CYP2C8

Row | Compound | clearance [1, 4] [mL/min] | Vd [1, 5] [L] | half-life [1, 6] [h] | fraction unbound at 24 h [2, 7] | Cmax [1, 8] [nM] | IC50 (CYP2C8; [9]) [µM] | further results
1 | O=C1CCC[C@@H]2[C@H]3CCC[N+]4([O-])CCC[C@@H](CN12)[C@@H]34 (stereo partly drawn) [Compound A3, Oxymatrine] |  |  |  |  |  |  | Cmax [1, 3]: 423000 ± 55500 nM; Vd [1, 3]: 0.22 L/kg; clearance [1, 3]: 1.86 mL/min/kg and 1.86 mL/min; half-life [1, 3]: 2.73 ± 1.16 h; fraction unbound at 24 h ([2]; rat, plasma): 0.932 ± 0.0652; IC50 (CYP2C8; IC50 towards CYP2C8, recombinant isozyme, mean ± SD of triplicate, unit not given (IC50 classes in μM)): > 100 µM
2 | O=C1CCC[C@@H]2[C@H]3CCCN4CCC[C@@H](CN12)[C@@H]34 [Compound A1, Matrine] | 0.0263 | 0.00985 ± 0.00247 | 4.33 ± 2.18 | 0.927 ± 0.0681 |  |  | clearance ([1]; male, Sprague-Dawley, plasma, rat, Kang-Ai injection 6 mL/kg iv, read-out: CLtot, p (converted)): 1.58 mL/h/kg; Vd ([1]; male, Sprague-Dawley, plasma, rat, Kang-Ai injection 6 mL/kg iv, read-out: VSS (Vd)): 0.00985 L/kg; AUC(0-t) ([1]; male, Sprague-Dawley, rat, plasma, iv, 6 mL/kg, rat plasma, 30-min iv infusion of Kang-Ai injection 6 mL/kg, unit per footnote # for matrine and oxymatrine, read-out: AUC0–12h): 68.6 ± 9.85 µM·h; Cmax ([1]; male, Sprague-Dawley, rat plasma, 30-min iv infusion of Kang-Ai injection 6 mL/kg, unit per footnote # for matrine and oxymatrine, read-out: Cmax): 15100 ± 3580 nM; IC50 (CYP2C8): > 100 µM
3 | CC(C)=CCC[C@](C)(O[C@@H]1O[C@H](CO[C@@H]2O[C@@H](CO)[C@H](O)[C@H]2O)[C@@H](O)[C@H](O)[C@H]1O)[C@H]1CC[C@]2(C)[C@@H]1[C@H](O)C[C@@H]1[C@@]3(C)CC[C@H](O[C@@H]4O[C@H](CO)[C@@H](O)[C@H](O)[C@H]4O[C@@H]4O[C@H](CO)[C@@H](O)[C@H](O)[C@H]4O)C(C)(C)[C@@H]3CC[C@]12C [Compound D3, Ginsenoside Rc] | 0.0933 | 0.0378 ± 0.0102 | 6.29 ± 3.17 | 0.0112 ± 0.0012 | 877 ± 39.5 | > 100 | 
4 | CC(C)=CCC[C@](C)(O[C@@H]1O[C@H](CO)[C@@H](O)[C@H](O)[C@H]1O)[C@H]1CC[C@]2(C)[C@@H]1[C@H](O)C[C@@H]1[C@@]3(C)CC[C@H](O)C(C)(C)[C@@H]3[C@@H](O[C@@H]3O[C@H](CO)[C@@H](O)[C@H](O)[C@H]3O[C@@H]3O[C@@H](C)[C@H](O)[C@@H](O)[C@H]3O)C[C@]12C [Compound C9, Ginsenoside Re] | 2.61 | 0.101 ± 0.027 | 1.07 ± 0.84 | 0.874 ± 0.0659 | 1340 ± 88.1 | 24 ± 10.7 | inhibition type (smallest AIC and SC) (CYP2C8; CYP2C8): mixed-type inhibition; Ki (CYP2C8; CYP2C8, competitive model): 8.2 ± 1.1 µM; Ki (CYP2C8; CYP2C8, mixed-type model): 13.3 ± 2.9 µM; α (CYP2C8; CYP2C8, mixed-type model): 4.2 ± 2.3; Ki (CYP2C8; CYP2C8, noncompetitive model): 26.5 ± 2.2 µM; Cmax/Ki ([I]/Ki) (CYP2C8; CYP2C8, selected model, rat plasma Cmax): 0.1; IC50 (CYP2C8; paclitaxel 60 μM, read-out: IC50 towards CYP2C8): 24 µM
5 | CC(C)=CCC[C@](C)(O[C@@H]1O[C@H](CO[C@@H]2O[C@H](CO)[C@@H](O)[C@H](O)[C@H]2O)[C@@H](O)[C@H](O)[C@H]1O)[C@H]1CC[C@]2(C)[C@@H]1[C@H](O)C[C@@H]1[C@@]3(C)CC[C@H](O[C@@H]4O[C@H](CO)[C@@H](O)[C@H](O)[C@H]4O[C@@H]4O[C@H](CO)[C@@H](O)[C@H](O)[C@H]4O)C(C)(C)[C@@H]3CC[C@]12C [Compound D5, Ginsenoside Rb1] | 0.103 | 0.047 ± 0.0199 | 7.22 ± 7.03 | 0.0096 ± 0.0009 | 497 ± 75.1 | > 100 | 
6 | CC(C)(O)[C@@H]1CC[C@](C)([C@H]2[C@@H](O)C[C@@]3(C)[C@@H]4C[C@H](O[C@@H]5O[C@H](CO)[C@@H](O)[C@H](O)[C@H]5O)[C@H]5C(C)(C)[C@@H](O[C@@H]6OC[C@@H](O)[C@H](O)[C@H]6O)CC[C@@]56C[C@@]46CC[C@]23C)O1 [Compound B2, Astragaloside IV] |  |  |  |  |  | > 100 | t1/2 ([1]; rat plasma, 30-min iv infusion of Kang-Ai injection 6 mL/kg): 1.64 ± 0.26 h; Cmax ([1]; rat plasma, 30-min iv infusion of Kang-Ai injection 6 mL/kg, read-out: Cmax): 2360 ± 252 nM; VSS (Vd) ([1]; rat, Kang-Ai injection 6 mL/kg iv): < 0.1 L/kg; bound in rat plasma ([2]; rat plasma, equilibrium dialysis): ~90%; fu-plasma (unbound fraction) ([2]; rat plasma, equilibrium dialysis 24 h, 37 °C, 2 μmol/L alkaloids, 4 μmol/L saponins): 12.35 ± 1.02%
7 | CC(C)=CCC[C@](C)(O[C@@H]1O[C@H](CO)[C@@H](O)[C@H](O)[C@H]1O)[C@H]1CC[C@]2(C)[C@@H]1[C@H](O)C[C@@H]1[C@@]3(C)CC[C@H](O[C@@H]4O[C@H](CO)[C@@H](O)[C@H](O)[C@H]4O[C@@H]4O[C@H](CO)[C@@H](O)[C@H](O)[C@H]4O)C(C)(C)[C@@H]3CC[C@]12C [Compound D2, Ginsenoside Rd] | 0.0972 |  | 5.84 ± 3.13 | 0.0075 ± 0.0008 | 766 ± 57.9 | > 100 | Vd ([1]; male, Sprague-Dawley, plasma, rat, 30-min iv infusion of Kang-Ai injection 6 mL/kg, Table 1 unit): 0.0357 ± 0.0114 L/kg
8 | CC(C)=CCC[C@](C)(O)[C@H]1CC[C@]2(C)[C@@H]1[C@H](O)C[C@@H]1[C@@]3(C)CC[C@H](O)C(C)(C)[C@@H]3[C@@H](O[C@@H]3O[C@H](CO)[C@@H](O)[C@H](O)[C@H]3O[C@@H]3O[C@H](CO)[C@@H](O)[C@H](O)[C@H]3O)C[C@]12C [Compound C7, Ginsenoside Rf] |  |  |  |  |  | > 100 | Cmax [1, 3]: 943 ± 172 nM; clearance [1, 3]: 1.82 mL/min; half-life [1, 3]: 0.63 ± 0.31 h; fraction unbound at 24 h ([2]; rat, plasma): 0.602 ± 0.0701
9 | CC(C)=CCC[C@](C)(O[C@@H]1O[C@H](CO)[C@@H](O)[C@H](O)[C@H]1O)[C@H]1CC[C@]2(C)[C@@H]1[C@H](O)C[C@@H]1[C@@]3(C)CC[C@H](O)C(C)(C)[C@@H]3[C@@H](O[C@@H]3O[C@H](CO)[C@@H](O)[C@H](O)[C@H]3O)C[C@]12C [Compound C6, Ginsenoside Rg1] | 2.61 | 0.144 ± 0.0642 | 1.2 ± 1.23 | 0.863 ± 0.0732 | 1570 ± 175 | > 100 | 
